In US20050048508A1, “Trehalose receptor and method for detecting trehalose with the same” (KABUSHIKI KAISHA HAYASHIBARA SEIBUTSU KAGAKU KENKYUJO, priority 2002, published 2005):

Biological target: T1, T1R2 with G protein α-subunits (α15 and α16/Z chimeric protein) (Mus musculus, UniProt Q925I4, E350G/G527D/P352R/R175Q)
T1 construct: expressed in transfected cells; host or cells: 293 cells, RCB 1637 (human embryonic kidney)
T1 sequence (Q925I4 20-843 R175Q/E350G/P352R/G527D): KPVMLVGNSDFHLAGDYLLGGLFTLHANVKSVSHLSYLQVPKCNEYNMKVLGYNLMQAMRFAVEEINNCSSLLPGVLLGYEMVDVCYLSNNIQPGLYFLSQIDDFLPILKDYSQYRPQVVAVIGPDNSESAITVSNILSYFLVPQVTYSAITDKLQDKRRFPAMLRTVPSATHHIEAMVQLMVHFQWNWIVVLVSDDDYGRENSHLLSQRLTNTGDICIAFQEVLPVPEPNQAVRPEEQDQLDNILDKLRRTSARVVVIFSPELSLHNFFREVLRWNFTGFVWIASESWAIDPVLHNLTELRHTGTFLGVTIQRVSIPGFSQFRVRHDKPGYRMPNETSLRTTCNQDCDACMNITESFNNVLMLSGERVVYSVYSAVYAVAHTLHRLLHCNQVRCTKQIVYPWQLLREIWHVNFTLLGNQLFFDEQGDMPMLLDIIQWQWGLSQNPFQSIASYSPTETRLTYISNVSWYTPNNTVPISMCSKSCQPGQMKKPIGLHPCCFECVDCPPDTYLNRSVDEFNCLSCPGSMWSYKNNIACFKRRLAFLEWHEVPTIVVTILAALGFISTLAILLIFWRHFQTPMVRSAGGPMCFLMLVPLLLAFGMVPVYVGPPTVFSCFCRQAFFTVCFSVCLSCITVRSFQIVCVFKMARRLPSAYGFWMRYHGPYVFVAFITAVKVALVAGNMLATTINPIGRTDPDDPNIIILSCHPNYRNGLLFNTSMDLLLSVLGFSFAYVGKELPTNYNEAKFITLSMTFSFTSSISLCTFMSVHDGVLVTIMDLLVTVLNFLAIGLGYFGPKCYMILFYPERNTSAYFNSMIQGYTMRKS
Assay: Intracellular calcium ion assay, 293 cells coexpressing G protein α-subunits and T1R2
Assay type: cell-based
Conditions: 293 cells: T1R2 + G protein α-subunits; 0.67 ml of 1 M saccharide solution added to 2 ml cell suspension; FLUO-4 AM
Procedure: The coexpression vector for the G protein α-subunit α15 and the G protein α16/Z chimeric protein (hereinafter designated as “G protein α-subunits”) obtained in Example 1-3 was gene transferred to 293 cells, RCB 1637, a human embryonic kidney cell line, available from the Riken Bioresource Center, Ibaraki, Japan, by conventional lipofection. The gene transferred cells were suspended in Dulbecco's Modified Eagle's Medium (D-MEM) supplemented with 1 mg/L of “PUROMYCIN”, a trade mane of puromycin commercialized by Edge Biosystems, MD, USA, and 10% (v/v) of fetal calf serum to give a cell density of 2×10^6 cells/ml and cultured in a plastic petri dish for cell culture. […]
The captioned reactivity test was conducted according to a conventional intracellular calcium ion assay: 293 Cells prepared in Example 3, capable of coexpressing the G protein α-subunits and the sweet taste receptor(s), were cultured in a plastic petri dish for cell culture until reaching its confluent phase. […] Two milliliters of the resultant cell suspension was injected into a glass cuvette, commercialized by Hitachi, Ltd., Tokyo, Japan, and analyzed on “HITACHI 650-40”, a fluorescence spectrophotometer commercialized by Hitachi, Ltd., Tokyo, Japan. […]

OC[C@H]1O[C@H](O[C@H]2O[C@H](CO)[C@@H](O)[C@H](O)[C@H]2O)[C@H](O)[C@@H](O)[C@@H]1O [Trehalose] was tested, and the “Influx of calcium ion” value was “Negative”.

In the case of OC[C@H]1O[C@@](CO)(O[C@H]2O[C@H](CO)[C@@H](O)[C@H](O)[C@H]2O)[C@@H](O)[C@@H]1O [Sucrose, reference compound], the “Influx of calcium ion” value is reported as “Negative”.
